Molecular target: T1, hGOAT (Homo sapiens, UniProt Q96T53)
T1 construct: expressed in transfected cells; host or cells: HEK293 (Hek293 hGOAT/PPGhrl Clone #1B8)
T1 sequence (Q96T53 1-435): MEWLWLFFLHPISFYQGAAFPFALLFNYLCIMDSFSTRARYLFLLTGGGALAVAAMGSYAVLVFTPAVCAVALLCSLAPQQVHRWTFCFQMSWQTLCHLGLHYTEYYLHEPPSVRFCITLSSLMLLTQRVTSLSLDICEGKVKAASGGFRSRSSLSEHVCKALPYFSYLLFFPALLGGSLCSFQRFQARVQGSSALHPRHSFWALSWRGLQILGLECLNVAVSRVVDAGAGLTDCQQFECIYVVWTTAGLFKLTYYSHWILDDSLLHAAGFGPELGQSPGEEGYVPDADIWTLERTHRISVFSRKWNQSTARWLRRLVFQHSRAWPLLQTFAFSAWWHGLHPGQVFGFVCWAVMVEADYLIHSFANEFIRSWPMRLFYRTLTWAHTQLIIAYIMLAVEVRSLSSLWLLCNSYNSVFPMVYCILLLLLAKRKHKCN
Test: Determination of hGOAT activity in HEK293 cells after incubation with test compound (acyl-ghrelin ELISA)
Type: cell-based
Settings: HEK293 cells stably transfected with preproghrelin and human GOAT; octanoate-BSA 100 μM; 5 hours incubation; acyl-ghrelin in medium by ELISA; 8 compound concentrations
Description: Determination of hGOAT Activity in HEK293 Cells after Incubation with Test Compound
HEK293 cells stably transfected with two expression vectors, one coding for preproghrelin cDNA and a second for the expression of human GOATcDNA are used as a cellular model. After feeding the cells with octanoic acid for 5 hours, acyl-ghrelin is measured in cell culture medium by an ELISA procedure.
Cellline: Hek293 hGOAT/PPGhrl Clone #1B8Sodium octanoate, Sigma, Cat.-No. C5038
BD Poly-D-Lysin 384-well Plates, black-clear polystyrene BD Bioscience Cat.-No. […] ELISA human acylated Ghrelin Kit purchased from Bertin Pharman (detailed composition of buffers e.g. wash-puffer, ELISA buffer not known)
Cells are plated with a density of 5000 cells/well in 384-well poly-D-lysin plates and incubated for 1 day at 37° C., 5% CO2 in DMEM medium, 10% FCS, 1×NEAA, Puromycin (0.5 μg/ml) and G418 (1 mg/ml). Then the medium is changed to a identical medium without FCS and containing Octanoate-BSA (final concentration 100 μM each) and compound in DMSO (final DMSO concentration 0,3%). After incubation for 5 hours acylghrelin in the medium is measured by ELISA.
The medium sample is diluted 1:25 in Elisa buffer, a 25 μl aliquot is transferred to a 384-well ELISA plate previously washed 4 times with 100 μL wash buffer, and 25 μl tracer-solution is added. After incubation overnight (˜20 h) at 4° C. temperature the plate is washed 4 times with 100 μl wash-buffer per well. Finally 50 μl Ellman's reagent is added to each well and the plate is incubated in the dark for 20 minutes. The absorbance is measured at 405 nm in an Envision multilabel reader and the amount of acylated ghrelin is calculated according to a acylated ghrelin standard curve provided in the same plate.
The analysis of the data is performed by calculation of the percentage of acyl-ghrelin produced in the presence of test compound compared to the amount of acyl-ghrelin produced in the vehicle control samples. An inhibitor of the GOAT enzyme will give values between 100% CTL (no inhibition) and 0% CTL (complete inhibition).
IC50 values are calculated with Assay Explorer or other suited software based on curve fitting of results of 8 different compound concentrations.

Structure (SMILES)	IC50
Cc1nc2nonc2c(N)c1Cc1ccc(C#N)c(OC(F)(F)F)c1 [Compound 4.43, 4-({7-Amino-5-methyl-[1,2,5]oxadiazolo[3,4-b]pyridin-6-yl}methyl)-2-(trifluoromethoxy)benzonitrile]	0.052 nM
Cc1nc2nonc2c(N)c1Cc1ccc(F)c(Br)c1 [Compound 4.44, 6-(3-Bromo-4-fluoro-benzyl)-5-methyl-[1,2,5]oxadiazolo[3,4-b]pyridin-7-ylamine]	0.573 nM
Cc1nc2nonc2c(N)c1Cc1ccc(C#N)c(Br)c1 [Compound 4.45, 4-(7-Amino-5-methyl-[1,2,5]oxadiazolo[3,4-b]pyridin-6-ylmethyl)-2-bromo-benzonitrile]	0.233 nM
Cc1nc2nonc2c(N)c1Cc1ccc(OC(F)(F)F)cc1F [Compound 4.46, 6-(2-Fluoro-4-trifluoromethoxy-benzyl)-5-methyl-[1,2,5]oxadiazolo[3,4-b]pyridin-7-ylamine]	0.052 nM
Cc1nc2nonc2c(N)c1Cc1cccnc1OC(F)F [Compound 4.47, 6-{[2-(Difluoromethoxy)pyridin-3-yl]methyl}-5-methyl-[1,2,5]oxadiazolo[3,4-b]pyridin-7-amine]	1.8 nM
Cc1nc2nonc2c(N)c1Cc1ccnc(OC(F)F)c1 [Compound 4.48, 6-(2-Difluoromethoxy-pyridin-4-ylmethyl)-5-methyl-[1,2,5]oxadiazolo[3,4-b]pyridin-7-ylamine]	3 nM
Cc1nc2nonc2c(N)c1Cc1cnc(OC(F)F)c(C#N)c1 [Compound 4.49, 5-({7-Amino-5-methyl-[1,2,5]oxadiazolo[3,4-b]pyridin-6-yl}methyl)-2-(difluoromethoxy)pyridine-3-carbonitrile]	35.7 nM
Cc1nc2nonc2c(N)c1Cc1ccc(F)cc1 [Compound 4.50, 6-[(4-Fluorophenyl)methyl]-5-methyl-[1,2,5]oxadiazolo[3,4-b]pyridin-7-amine]	0.751 nM
COc1cccc(Cc2c(C)nc3nonc3c2N)c1 [Compound 4.51, 6-[(3-Methoxyphenyl)methyl]-5-methyl-[1,2,5]oxadiazolo[3,4-b]pyridin-7-amine]	0.673 nM
Cc1nc2nonc2c(N)c1Cc1cc(F)c(F)c(F)c1 [Compound 4.52, 5-Methyl-6-[(3,4,5-trifluorophenyl)methyl]-[1,2,5]oxadiazolo[3,4-b]pyridin-7-amine]	1.59 nM
COc1ccc(Cc2c(C)nc3nonc3c2N)cc1 [Compound 4.53, 6-[(4-Methoxyphenyl)methyl]-5-methyl-[1,2,5]oxadiazolo[3,4-b]pyridin-7-amine]	0.147 nM
Cc1nc2nonc2c(N)c1Cc1cccc(OC(F)F)c1 [Compound 4.54, 6-{[3-(Difluoromethoxy)phenyl]methyl}-5-methyl-[1,2,5]oxadiazolo[3,4-b]pyridin-7-amine]	0.495 nM
Cc1nc2nonc2c(N)c1Cc1ccnc(Cl)c1 [Compound 4.55, 6-[(2-Chloropyridin-4-yl)methyl]-5-methyl-[1,2,5]oxadiazolo[3,4-b]pyridin-7-amine]	6.27 nM
Cc1nc2nonc2c(N)c1Cc1ccnc(OC(F)(F)F)c1 [Compound 4.56, 5-Methyl-6-{[2-(trifluoromethoxy)pyridin-4-yl]methyl}-[1,2,5]oxadiazolo[3,4-b]pyridin-7-amine]	0.519 nM
Cc1nc2nonc2c(N)c1Cc1ccc(C(F)(F)F)c(C#N)c1 [Compound 4.57, 5-({7-Amino-5-methyl-[1,2,5]oxadiazolo[3,4-b]pyridin-6-yl}methyl)-2-(trifluoromethyl)benzonitrile]	0.121 nM
Cc1nc2nonc2c(N)c1Cc1ccc(OC(F)(F)F)nc1 [Compound 4.58, 5-Methyl-6-{[6-(trifluoromethoxy)pyridin-3-yl]methyl}-[1,2,5]oxadiazolo[3,4-b]pyridin-7-amine]	0.752 nM
Cc1nc2nonc2c(N)c1Cc1ccc(C#N)c(C#N)c1 [Compound 4.59, 4-({7-Amino-5-methyl-[1,2,5]oxadiazolo[3,4-b]pyridin-6-yl}methyl)benzene-1,2-dicarbonitrile]	2.51 nM
Cc1nc2nonc2c(N)c1Cc1cnc(C(F)(F)F)c(C#N)c1 [Compound 4.60, 5-({7-Amino-5-methyl-[1,2,5]oxadiazolo[3,4-b]pyridin-6-yl}methyl)-2-(trifluoromethyl)pyridine-3-carbonitrile]	6.74 nM
Cc1nc2nonc2c(N)c1Cc1ccc(Br)c(C#N)c1 [Compound 4.61, 5-({7-Amino-5-methyl-[1,2,5]oxadiazolo[3,4-b]pyridin-6-yl}methyl)-2-bromobenzonitrile]	0.542 nM
Cc1nc2nonc2c(N)c1Cc1cccc(OCF)c1 [Compound 8.1, 6-{[3-(Fluoromethoxy)phenyl]methyl}-5-methyl-[1,2,5]oxadiazolo[3,4-b]pyridin-7-amine]	1.09 nM
Nc1c(Cc2ccc(C(F)(F)F)cc2)c(C(F)(F)F)nc2nonc12 [Compound 9.1, 5-(Trifluoromethyl)-6-{[4-(trifluoromethyl)phenyl]methyl}-[1,2,5]oxadiazolo[3,4-b]pyridin-7-amine]	9.47 nM

Second part, the compound after the results:

IC50	Structure (SMILES)
0.594 nM	Cc1nc2nonc2c(N)c1Cc1ccc(O)cc1 [Compound 10.1, 4-(7-Amino-5-methyl-[1,2,5]oxadiazolo[3,4-b]pyridin-6-ylmethyl)-phenol]
0.068 nM	Nc1c(Cc2ccc(OC(F)(F)F)cc2)c(CF)nc2nonc12 [Compound 11.1, 5-(Fluoromethyl)-6-{[4-(trifluoromethoxy)phenyl]methyl}-[1,2,5]oxadiazolo[3,4-b]pyridin-7-amine]
0.079 nM	Cc1nc2nonc2c(N)c1Cc1cccc(-c2ccn[nH]2)c1 [Compound 12.1, 5-Methyl-6-{[3-(1H-pyrazol-5-yl)phenyl]methyl}-[1,2,5]oxadiazolo[3,4-b]pyridin-7-amine]
0.043 nM	Cc1nc2nonc2c(N)c1Cc1ccc(OC(F)(F)F)c(-c2cc[nH]n2)c1 [Compound 12.2, 5-Methyl-6-[3-(1H-pyrazol-3-yl)-4-trifluoromethoxy-benzyl]-[1,2,5]oxadiazolo[3,4-b]pyridin-7-ylamine]
0.509 nM	Cc1nc2nonc2c(N)c1Cc1ccc(-c2ccsc2C#N)nc1 [Compound 12.3, 3-[5-(7-Amino-5-methyl-[1,2,5]oxadiazolo[3,4-b]pyridin-6-ylmethyl)-pyridin-2-yl]-thiophene-2-carbonitrile]
1.52 nM	Cc1nc2nonc2c(N)c1Cc1ccc(-c2cscc2C#N)nc1 [Compound 12.4, 4-[5-(7-Amino-5-methyl-[1,2,5]oxadiazolo[3,4-b]pyridin-6-ylmethyl)-pyridin-2-yl]-thiophene-3-carbonitrile]
3.66 nM	Cc1nc2nonc2c(N)c1Cc1ccc(-c2ccc(C#N)s2)nc1 [Compound 12.5, 5-[5-(7-Amino-5-methyl-[1,2,5]oxadiazolo[3,4-b]pyridin-6-ylmethyl)-pyridin-2-yl]-thiophene-2-carbonitrile]
0.402 nM	Cc1nc2nonc2c(N)c1Cc1ccc(-c2c(C)noc2C)nc1 [Compound 12.6, 6-{[6-(3,5-Dimethyl-1,2-oxazol-4-yl)pyridin-3-yl]methyl}-5-methyl-[1,2,5]oxadiazolo[3,4-b]pyridin-7-amine]
1.17 nM	Cc1nc2nonc2c(N)c1Cc1ccc(-c2cn(C)nc2C(F)(F)F)nc1 [Compound 12.7, 5-Methyl-6-({6-[1-methyl-3-(trifluoromethyl)-1H-pyrazol-4-yl]pyridin-3-yl}methyl)-[1,2,5]oxadiazolo[3,4-b]pyridin-7-amine]
0.531 nM	Cc1nc2nonc2c(N)c1Cc1ccc(-c2cncn2C)nc1 [Compound 12.8, 5-Methyl-6-{[6-(1-methyl-1H-imidazol-5-yl)pyridin-3-yl]methyl}-[1,2,5]oxadiazolo[3,4-b]pyridin-7-amine]
1.49 nM	Cc1nc2nonc2c(N)c1Cc1ccc(-c2ccco2)nc1 [Compound 12.9, 6-{[6-(Furan-2-yl)pyridin-3-yl]methyl}-5-methyl-[1,2,5]oxadiazolo[3,4-b]pyridin-7-amine]
